Assay results reported in paper PMC6254361, “The properties of Msh2–Msh6 ATP binding mutants suggest a signal amplification mechanism in DNA mismatch repair” (The Journal of Biological Chemistry, 2018).

Molecular target: T1, Msh2–Msh6 (Saccharomyces cerevisiae, UniProt P25847+Q03834, Q03834:K988A)
T1 sequence (P25847 1-964): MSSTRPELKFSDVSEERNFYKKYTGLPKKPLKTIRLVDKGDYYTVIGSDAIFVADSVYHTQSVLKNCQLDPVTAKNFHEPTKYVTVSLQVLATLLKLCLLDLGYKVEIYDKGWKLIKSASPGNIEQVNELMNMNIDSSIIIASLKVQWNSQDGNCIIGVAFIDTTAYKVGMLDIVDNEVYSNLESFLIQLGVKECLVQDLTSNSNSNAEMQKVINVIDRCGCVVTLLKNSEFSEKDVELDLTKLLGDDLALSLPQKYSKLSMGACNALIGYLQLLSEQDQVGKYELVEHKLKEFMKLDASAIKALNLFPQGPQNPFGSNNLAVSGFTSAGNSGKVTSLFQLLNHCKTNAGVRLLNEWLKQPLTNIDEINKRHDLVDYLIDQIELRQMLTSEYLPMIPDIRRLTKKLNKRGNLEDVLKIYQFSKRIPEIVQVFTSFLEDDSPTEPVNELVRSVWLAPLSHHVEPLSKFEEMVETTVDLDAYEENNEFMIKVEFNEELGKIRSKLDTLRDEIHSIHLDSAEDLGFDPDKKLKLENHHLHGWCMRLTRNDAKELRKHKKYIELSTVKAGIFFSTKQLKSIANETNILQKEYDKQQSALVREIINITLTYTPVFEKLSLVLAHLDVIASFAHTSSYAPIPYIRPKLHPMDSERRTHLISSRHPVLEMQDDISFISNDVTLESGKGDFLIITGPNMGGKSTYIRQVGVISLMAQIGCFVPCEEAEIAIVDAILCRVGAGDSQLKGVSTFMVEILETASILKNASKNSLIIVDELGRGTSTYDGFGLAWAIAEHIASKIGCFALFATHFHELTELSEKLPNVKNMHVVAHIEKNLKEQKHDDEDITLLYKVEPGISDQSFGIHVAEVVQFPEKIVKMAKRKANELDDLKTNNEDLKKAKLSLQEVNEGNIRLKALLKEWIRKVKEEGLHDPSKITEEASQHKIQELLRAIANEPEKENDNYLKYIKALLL
T1 sequence (Q03834 1-1242 K988A): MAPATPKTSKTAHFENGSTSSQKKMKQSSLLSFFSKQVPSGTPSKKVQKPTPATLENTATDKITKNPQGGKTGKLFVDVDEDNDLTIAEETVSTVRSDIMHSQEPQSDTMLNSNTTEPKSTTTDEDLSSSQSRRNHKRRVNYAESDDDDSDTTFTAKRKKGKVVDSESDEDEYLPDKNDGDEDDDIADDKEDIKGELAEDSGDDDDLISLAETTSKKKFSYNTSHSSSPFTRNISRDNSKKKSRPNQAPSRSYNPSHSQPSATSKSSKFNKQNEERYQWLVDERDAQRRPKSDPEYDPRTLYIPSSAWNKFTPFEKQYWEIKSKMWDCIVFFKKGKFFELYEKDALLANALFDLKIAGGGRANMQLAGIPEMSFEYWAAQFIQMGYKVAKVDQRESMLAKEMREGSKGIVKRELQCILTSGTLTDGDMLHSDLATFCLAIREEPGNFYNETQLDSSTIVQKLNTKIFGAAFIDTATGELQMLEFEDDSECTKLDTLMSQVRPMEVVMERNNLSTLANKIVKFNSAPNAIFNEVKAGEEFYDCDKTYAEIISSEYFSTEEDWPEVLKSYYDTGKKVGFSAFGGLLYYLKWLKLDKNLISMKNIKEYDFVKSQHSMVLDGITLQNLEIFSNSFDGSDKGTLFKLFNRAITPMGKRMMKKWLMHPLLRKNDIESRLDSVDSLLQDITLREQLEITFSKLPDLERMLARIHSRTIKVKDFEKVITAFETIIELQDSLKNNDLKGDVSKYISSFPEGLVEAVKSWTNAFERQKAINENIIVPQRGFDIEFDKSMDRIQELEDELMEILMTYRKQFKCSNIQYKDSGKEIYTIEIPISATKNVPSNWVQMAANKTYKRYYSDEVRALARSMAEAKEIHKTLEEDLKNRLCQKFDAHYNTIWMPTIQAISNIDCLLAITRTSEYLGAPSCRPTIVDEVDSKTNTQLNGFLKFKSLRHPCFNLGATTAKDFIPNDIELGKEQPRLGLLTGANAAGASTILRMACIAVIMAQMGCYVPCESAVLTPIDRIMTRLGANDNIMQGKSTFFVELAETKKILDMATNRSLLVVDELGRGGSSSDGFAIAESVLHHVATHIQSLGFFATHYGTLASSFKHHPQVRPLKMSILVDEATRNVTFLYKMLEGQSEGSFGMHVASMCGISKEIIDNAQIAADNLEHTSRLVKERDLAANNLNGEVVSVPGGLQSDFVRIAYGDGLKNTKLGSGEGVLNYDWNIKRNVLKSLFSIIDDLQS
Experiment: UV cross-linking of [γ-32P]ATP, SDS-PAGE, phosphorimaging
Format: binding
Conditions: labelled compound; no Mg2+, EDTA, pH 8, on ice; Msh2 site at 60 μM ATP, Msh6 site at 1 μM ATP

Nc1ncnc2c1ncn2[C@@H]1O[C@H](COP(=O)(O)OP(=O)(O)OP(=O)(O)O)[C@@H](O)[C@H]1O [ATP]
relative ATP binding: Msh2–Msh6(K988A) and Msh2–Msh6(K988R) mutant complexes had partial ATP binding defects at the Msh2 subunit
